Laboratory results: PMC10874388, “Cyclic peptides discriminate BCL-2 and its clinical mutants from BCL-XL by engaging a single-residue discrepancy” (Nature Communications, 2024)
“And” between values parts separate entries of the source, which are not always exact repeats. Identical values can stand only once. Starred links: 1 amine or outer side, 2 acyl side, 3 side chain; linkers in the order of their positions; H or OH if unused. Positions of bridges follow the written chain, without caps; N, C: chain ends. Residues, ends and D or L forms follow the SMILES beside them. X1 = O=C(C[*:2])NCCNC(=O)c1ccc(C2=N[C@H](C(=O)[*:1])CS2)cc1

Legend:
Assay type in all cases: cell-based
RS4:11 cells = assay: Cell viability assay (CellTiter-Glo), RS4:11; conditions: RS4:11, single wells
Method: (§1) The cell lines Jurkat (TIB-152), El4 (TIB-39), Daudi (ccl-213), RS4:11 (crl-1873), A549 (ccl-185), HepG2 (hb-8065) and PANC-1 (crl-1469) were purchased from ATCC (American Type Culture Collection), and MGC-803 (C6582) was purchased from Beyotime (https://www.beyotime.com/product/C6582.htm). […] Daudi and RS4:11 cells were cultured in RPMI-1640 medium (HyClone, SH30809.01) and 10% FBS (Gibco, 10099-141), whereas HepG2, MGC-803 and PANC-1 cells were cultured in MDEM (HyClone, SH30243.01). Cells were maintained at 37 °C under a humidified, 5% (v/v) CO2-containing atmosphere.
(§2) Cell viability was measured using CellTiter-Glo® 2.0 Reagent (Promega, G9242). […] After different inhibitors were added into serum-free medium and cultured for 4 h (RS4:11 for 6 h), FBS were supplemented to 10% and then incubated totally for 24 h or 48 h. Finally, the IC50 values were calculated based on measurements using a microplate reader (Thermo, Varioskan LUX). Statistical analysis was performed using software GraphPad Prism 7.0.

Jurkat cells [1] = assay: Apoptosis assay, Annexin V-FITC/PI staining and flow cytometry
Method: Jurkat cells were seeded to 6-well plates at a density of 4 ×10^5 cells per well. Cells were incubated in the presence of DMSO, venetoclax at 2.5 μM, cp1-TAT at 30 μM, cp2-TAT at 30 μM, or cp3-TAT at 20 μM in serum-free RPMI medium for 4 h. After being incubated totally for 24 h, cells were washed once with PBS and stained with 100 μL binding buffer containing 5 μL Annexin V-FITC and 10 μL PI for 15 min, followed by addition of 400 μL binding buffer to detect cell apoptosis with FCM (BD FACSAria Fusion). Statistical analysis was performed using software FlowJo V10 and GraphPad Prism 7.0.

Jurkat cells [2] = assay: Mitochondrial membrane potential (JC-1), flow cytometry and fluorescence microscopy; conditions: for Q1(%) / Q1(%)/Q3(%) / Q3(%): Figure 6d, 4h, replicate values; for ΔΨm (ratio of red over green fluorescence, Q1/Q3): 4 h treatment, JC-1, flow cytometry, n = 3
Method: For the mitochondrial membrane potential (ΔΨm) analysis, the mitochondrial membrane potential assay kit with JC-1 dye (Beyotime, C2006) was used according to the manufacturer’s protocol. […] The value of ΔΨm was expressed as the ratio of red fluorescence intensity over green fluorescence intensity. After treated with JC-1, fluorescence intensity of Jurkat cells was tested by flow cytometry (BD FACSAria Fusion) and fluorescence microscopy (NIKON Ti-E), respectively. All experiments were performed in triplicate. Statistical analysis was performed using software GraphPad Prism 7.0.

A549 cells (control) = assay: Cell viability assay (CellTiter-Glo), normal A549 (control); conditions: TAT control
Method: as §1, §2

[3] = test system: A549 cells overexpressing BCL-2 WT; assay: Cell viability assay, A549 stably overexpressing BCL-2 WT; conditions: BCL2-WT A549, TAT control
Method: as §2
(§3) Lentivirus packaging vectors pMDLg/pRRE, pRSV-Rev, and pVSV-G were obtained from Prof. Han Jiahuai’s lab (Xiamen University). Lentiviruses were produced using 3rd-generation lentivirus packaging plasmids transiently transfected into HEK293T cells with the constructs of interest using 0.25 M CaCl2. Media was changed after 16 h, and supernatants containing infectious virus particles were harvested 24 h later. A second viral harvest was made following a further 24 h incubation with fresh media. Virus containing supernatant was filtered through a […], and stored at 4 °C or −80 °C until being used. Typically, A549 cells were seeded into 10 cm cell culture dishes at 4 ~ 8 × 10^5 cells/cm^2. An equivalent volume of virus containing culture medium was added along with polybrene (Sigma) to a final concentration of 10 µg/mL. Cells were incubated at 37 °C for 20 h, before they were washed and resuspended in fresh culture media. The expression level of BCL-2 was measured by qPCR and western blot methods.

[4] = test system: A549 cells overexpressing BCL-2 G101V; assay: Cell viability assay, A549 stably overexpressing BCL-2 G101V; conditions: BCL2/G101V A549, TAT control
Method: as §2, §3

MGC-803 cells = assay: Cell viability assay (CellTiter-Glo), MGC-803; conditions: TAT control
Method: as §1, §2
(§4) Supplementary Figure 10 Functional mechanism of CPs. a. IC50 values of venetoclax against A549, MGC-803 and PANC-1 cells, measured after 48 h treatment by a CellTiter-Glo assay and calculated using Prism 7.0 by a nonlinear-fit method. Data are presented as mean ± s.d.; n= 6 biological replicates. b. […]
(§5) Glo assay. Each data point represents the mean ± s.d. for 6 biological replicates.
(§6) Supplementary Figure 11 IC50 values of different inhibitors against different cell lines. a-d. Viability of A549 (a), HepG2 (b), MGC-803 (c) and PANC-1 (d) cells treated with various concentrations of ABT-199 (venetoclax), and measured after 48 h by a CellTiter-Glo assay. e, f. Viability of Jurkat cells (e) and Daudi cells (f) treated with […]
(§7) after 48 h by a CellTiter-Glo assay. Each data point represents the mean ± s.d. for 6 biological replicates.
(§8) (1 picture or pasted object on this page, not shown here)

PANC-1 cells = assay: Cell viability assay (CellTiter-Glo), PANC-1; conditions: PNAC-1, TAT control
Method: as §1, §2, §4, §5, §6, §7, §8

C[C@@H]1NC(=O)[C@@H]2CCCN2C(=O)[C@@H]2CSC(=N2)c2ccc(cc2)C(=O)NCCNC(=O)CSC[C@@H](C(=O)NCC(=O)N[C@@H](CO)C(=O)NCC(=O)N[C@@H](CO)C(=O)N[C@@H](CCCNC(=N)N)C(=O)N[C@@H](CCCCN)C(=O)N[C@@H](CCCCN)C(=O)N[C@@H](CCCNC(=N)N)C(=O)N[C@@H](CCCNC(=N)N)C(=O)N[C@@H](CCC(N)=O)C(=O)N[C@@H](CCCNC(=N)N)C(=O)N[C@@H](CCCNC(=N)N)C(=O)N[C@@H](CCCNC(=N)N)C(N)=O)NC(=O)[C@H](CCC(=O)O)NC(=O)[C@H](Cc2ccc(O)cc2)NC(=O)[C@H](CC(=O)O)NC(=O)[C@H](Cc2c[nH]c3ccccc23)NC(=O)CNC(=O)[C@H](Cc2ccc(O)cc2)NC(=O)[C@H](CCCNC(=N)N)NC1=O [cp1-TAT] (PARYGWDYECGSGSRKKRRQRRR-NH2; linker N-10 via X1; C-terminus assumed)
raw luminescence reading (RS4:11 cells; 0.0488281 uM): 483100 and 539500 and 548500 and 508300 and 527200 and 488600 | raw luminescence reading (RS4:11 cells; 0.0976562 uM): 528800 and 591800 and 582200 and 559700 and 554700 and 529500 | raw luminescence reading (RS4:11 cells; 0.195312 uM): 524900 and 538800 and 551800 and 528900 and 518500 and 499500 | inhibition rate (RS4:11 cells; 0.195312 uM, 0.195312 µM): 0.825% and -1.8% and -4.26% and 0.0693% and 2% and 5.62% | raw luminescence reading (RS4:11 cells; 0.390625 uM): 511700 and 533900 and 533200 and 520400 and 504300 and 479000 | raw luminescence reading (RS4:11 cells; 0.78125 uM): 535400 and 544100 and 562800 and 550400 and 519400 and 494800 | raw luminescence reading (RS4:11 cells; 1.5625 uM): 520400 and 578500 and 612400 and 550500 and 491200 and 506800 | raw luminescence reading (RS4:11 cells; 3.125 uM): 414000 and 466800 and 497600 and 501300 and 428800 and 513500 | raw luminescence reading (RS4:11 cells; 6.25 uM): 401900 and 468400 and 486300 and 500900 and 419400 and 497100 | raw luminescence reading (RS4:11 cells; 12.5 uM): 380500 and 444100 and 470000 and 488300 and 390700 and 473300 | inhibition rate (RS4:11 cells; 12.5 uM, 12.5 µM): 11% | raw luminescence reading (RS4:11 cells; 25 uM): 309300 and 375600 and 407800 and 416800 and 350200 and 401000 | inhibition rate (RS4:11 cells; 25 uM, 25 µM): 42% and 29% and 23% and 21% and 34% and 24% | raw luminescence reading (RS4:11 cells; 50 uM): 222600 and 265500 and 282300 and 297300 and 246800 and 283000 | inhibition rate (RS4:11 cells; 50 uM, 50 µM): 58% and 50% and 47% and 44% and 53% | raw luminescence reading (RS4:11 cells; 100 uM): 63070 and 74540 and 82840 and 89800 and 66010 and 86930 | inhibition rate (RS4:11 cells; 100 uM, 100 µM): 88% and 86% and 84% and 83% | cell apoptosis(%) (Jurkat cells [1]; Figure 6b, replicate values): 66.77% and 60.2% | Proportion of apoptotic cells (Jurkat cells [1]; Jurkat, 24 h, 30 μM): 66.77% | Q1(%) (Jurkat cells [2]): 67.4% and 59.1% and 60.9% | Q1(%)/Q3(%) (Jurkat cells [2]): 5.861 and 3.177 and 3.421 | Q3(%) (Jurkat cells [2]): 11.5% and 18.6% and 17.8% | ΔΨm (ratio of red over green fluorescence, Q1/Q3) (Jurkat cells [2]; Jurkat): 4.15 | Relative ΔΨm by JC-1 fluorescence staining (microscopy) (Jurkat cells [2]; Jurkat, 24 h treatment (Supplementary Fig. 13)): slightly decreased

TAT (GSGSRKKRRQRRR)
average (raw viability reading) (A549 cells (control); A549): 422183 | inhibition rate (A549 cells (control); A549, fraction, replicates): 0.1678 and 0.2197 and 0.2282 and 0.2003 and 0.1961 and 0.2135 | raw viability reading (A549 cells (control); A549, replicates): 409500 and 424300 and 426500 and 417300 and 441500 and 414000 | luminescence reading (raw, replicate wells) (A549 cells (control); control A549): 640800 and 544000 and 632800 and 539700 and 559000 and 590400 | luminescence reading, everage (A549 cells (control); control A549, mean of 6 wells): 584450 | luminescence reading (raw, replicate wells) [3]: 525300 and 568300 and 525100 and 556600 and 515500 and 559500 | luminescence reading, everage ([3]; mean of 6 wells): 541717 | luminescence reading (raw, replicate wells) [4]: 540600 and 529300 and 534000 and 526600 and 523000 and 507100 | luminescence reading, everage ([4]; mean of 6 wells): 526767 | Q1(%) (Jurkat cells [2]): 92.3% and 93.6% and 94.9% | Q1(%)/Q3(%) (Jurkat cells [2]): 22.1343 and 27.3684 and 32.6117 | Q3(%) (Jurkat cells [2]): 4.17% and 3.42% and 2.91% | ΔΨm (ratio of red over green fluorescence, Q1/Q3) (Jurkat cells [2]; Jurkat): 27.37 | average (raw viability reading) (MGC-803 cells): 627500 | inhibition rate (MGC-803 cells; fraction, replicates): 0.09219 and 0.04796 and 0.06436 and 0.05774 and 0.0275 and 0.04676 | raw viability reading (MGC-803 cells; replicates): 622000 and 626400 and 646500 and 633700 and 603500 and 632900 | average (raw viability reading) (PANC-1 cells): 639133 | inhibition rate (PANC-1 cells; fraction, replicates): 0.2393 and 0.182 and 0.1596 and 0.1507 and 0.1102 and 0.1321 | raw viability reading (PANC-1 cells; replicates): 580400 and 624100 and 641200 and 648000 and 678900 and 662200
